Measured values taken from article PMC5448077, “Development of an orally available inhibitor of CLK1 for skipping a mutated dystrophin exon in Duchenne muscular dystrophy” (Scientific Reports, 2017).

Tests used:
Experiment in all cases: biochemical
TSSK3 = TSSK3 (Homo sapiens, UniProt Q96PN8)
Method in brief: (§1)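 Reactions at room temperature in HEPES buffer (20 mM, pH 7.5, 0.01% Triton X-100, 2 mM DTT) lasted 1 or 5 h depending on kinase, with substrate peptide and ATP-metal. Phosphorylation read by electrophoretic mobility shift or IMAP polarization; kinase activity computed as P/(P + S).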

FES = FES (Homo sapiens, UniProt P07332)
Method in brief: as §1

MARK1 = MARK1 (Homo sapiens, UniProt Q9P0L2)
Method in brief: as §1

EGFR(T790M) = EGFR(T790M) (Homo sapiens, UniProt P00533, T790M)
Method in brief: as §1

RSK4 = target: T1, RSK4 (Homo sapiens, UniProt Q9UK32)
T1 construct: gene RPS6KA6
Method in brief: as §1

MARK4 = MARK4 (Homo sapiens, UniProt Q96L34)
Method in brief: as §1

MST3 = target: T2, MST3 (Homo sapiens, UniProt Q9Y6E0)
T2 construct: gene STK24
Method in brief: as §1

EPHB2 = EPHB2 (Homo sapiens, UniProt P29323)
Method in brief: as §1

PAK4 = PAK4 (Homo sapiens, UniProt O96013)
Method in brief: as §1

TEC = TEC (Homo sapiens, UniProt P42680)
Method in brief: as §1

PKACα = target: T3, PKACα (Homo sapiens, UniProt P17612)
T3 construct: gene PRKACA
Method in brief: as §1

SYK = SYK (Homo sapiens, UniProt P43405)
Method in brief: as §1

NEK4 = NEK4 (Homo sapiens, UniProt P51957)
Method in brief: as §1

EPHA8 = EPHA8 (Homo sapiens, UniProt P29322)
Method in brief: as §1

EPHA6 = EPHA6 (Homo sapiens, UniProt Q9UF33)
Method in brief: as §1

PKD1 = target: T4, PKD1 (Homo sapiens, UniProt Q15139)
T4 construct: gene PRKD1
Method in brief: as §1

YES(T348I) = target: T5, YES(T348I) (Homo sapiens, UniProt P07947, T348I)
T5 construct: gene YES1
Method in brief: as §1

KIT(V560G) = KIT(V560G) (Homo sapiens, UniProt P10721, V560G)
Method in brief: as §1

HCK = HCK (Homo sapiens, UniProt P08631)
Method in brief: as §1

DYRK3 = DYRK3 (Homo sapiens, UniProt O43781)
Method in brief: as §1

CRIK = target: T6, CRIK (Homo sapiens, UniProt O14578)
T6 construct: gene CIT
Method in brief: as §1

p38δ = target: T7, p38δ (Homo sapiens, UniProt O15264)
T7 construct: gene MAPK13
Method in brief: as §1

FGFR1 = FGFR1 (Homo sapiens, UniProt P11362)
Method in brief: as §1

RET(Y791F) = RET(Y791F) (Homo sapiens, UniProt P07949, Y791F)
Method in brief: as §1

YES = target: T8, YES (Homo sapiens, UniProt P07947)
T8 construct: gene YES1
Method in brief: as §1

CHK2 = target: T9, CHK2 (Homo sapiens, UniProt O96017)
T9 construct: gene CHEK2
Method in brief: as §1

MNK1 = target: T10, MNK1 (Homo sapiens, UniProt Q9BUB5)
T10 construct: gene MKNK1
Method in brief: as §1

FGFR2 = FGFR2 (Homo sapiens, UniProt P21802)
Method in brief: as §1

WNK3 = WNK3 (Homo sapiens, UniProt Q9BYP7)
Method in brief: as §1

EGFR = EGFR (Homo sapiens, UniProt P00533)
Method in brief: as §1

WNK1 = WNK1 (Homo sapiens, UniProt Q9H4A3)
Method in brief: as §1

T2 sequence (Q9Y6E0 whole entry): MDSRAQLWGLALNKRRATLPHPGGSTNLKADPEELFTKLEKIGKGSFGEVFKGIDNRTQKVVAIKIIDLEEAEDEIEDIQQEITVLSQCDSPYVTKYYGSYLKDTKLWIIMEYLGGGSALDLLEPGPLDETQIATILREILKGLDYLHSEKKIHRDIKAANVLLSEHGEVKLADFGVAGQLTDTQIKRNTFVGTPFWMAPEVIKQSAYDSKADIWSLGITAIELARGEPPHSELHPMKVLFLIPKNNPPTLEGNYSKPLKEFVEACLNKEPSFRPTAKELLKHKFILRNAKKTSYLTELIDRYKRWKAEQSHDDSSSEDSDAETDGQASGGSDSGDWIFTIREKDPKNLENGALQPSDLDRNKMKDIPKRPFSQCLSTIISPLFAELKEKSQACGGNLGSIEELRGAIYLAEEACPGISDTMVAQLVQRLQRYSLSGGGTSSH
Sequence of TSSK3 (Q96PN8 whole entry): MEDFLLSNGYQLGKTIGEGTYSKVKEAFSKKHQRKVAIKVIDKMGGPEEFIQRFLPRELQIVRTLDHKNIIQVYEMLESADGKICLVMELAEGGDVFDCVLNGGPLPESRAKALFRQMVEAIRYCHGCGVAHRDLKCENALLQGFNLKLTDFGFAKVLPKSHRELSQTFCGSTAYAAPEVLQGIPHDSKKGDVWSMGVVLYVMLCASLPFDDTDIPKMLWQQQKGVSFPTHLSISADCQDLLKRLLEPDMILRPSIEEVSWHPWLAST
Sequence of EGFR(T790M) (P00533 whole entry T790M): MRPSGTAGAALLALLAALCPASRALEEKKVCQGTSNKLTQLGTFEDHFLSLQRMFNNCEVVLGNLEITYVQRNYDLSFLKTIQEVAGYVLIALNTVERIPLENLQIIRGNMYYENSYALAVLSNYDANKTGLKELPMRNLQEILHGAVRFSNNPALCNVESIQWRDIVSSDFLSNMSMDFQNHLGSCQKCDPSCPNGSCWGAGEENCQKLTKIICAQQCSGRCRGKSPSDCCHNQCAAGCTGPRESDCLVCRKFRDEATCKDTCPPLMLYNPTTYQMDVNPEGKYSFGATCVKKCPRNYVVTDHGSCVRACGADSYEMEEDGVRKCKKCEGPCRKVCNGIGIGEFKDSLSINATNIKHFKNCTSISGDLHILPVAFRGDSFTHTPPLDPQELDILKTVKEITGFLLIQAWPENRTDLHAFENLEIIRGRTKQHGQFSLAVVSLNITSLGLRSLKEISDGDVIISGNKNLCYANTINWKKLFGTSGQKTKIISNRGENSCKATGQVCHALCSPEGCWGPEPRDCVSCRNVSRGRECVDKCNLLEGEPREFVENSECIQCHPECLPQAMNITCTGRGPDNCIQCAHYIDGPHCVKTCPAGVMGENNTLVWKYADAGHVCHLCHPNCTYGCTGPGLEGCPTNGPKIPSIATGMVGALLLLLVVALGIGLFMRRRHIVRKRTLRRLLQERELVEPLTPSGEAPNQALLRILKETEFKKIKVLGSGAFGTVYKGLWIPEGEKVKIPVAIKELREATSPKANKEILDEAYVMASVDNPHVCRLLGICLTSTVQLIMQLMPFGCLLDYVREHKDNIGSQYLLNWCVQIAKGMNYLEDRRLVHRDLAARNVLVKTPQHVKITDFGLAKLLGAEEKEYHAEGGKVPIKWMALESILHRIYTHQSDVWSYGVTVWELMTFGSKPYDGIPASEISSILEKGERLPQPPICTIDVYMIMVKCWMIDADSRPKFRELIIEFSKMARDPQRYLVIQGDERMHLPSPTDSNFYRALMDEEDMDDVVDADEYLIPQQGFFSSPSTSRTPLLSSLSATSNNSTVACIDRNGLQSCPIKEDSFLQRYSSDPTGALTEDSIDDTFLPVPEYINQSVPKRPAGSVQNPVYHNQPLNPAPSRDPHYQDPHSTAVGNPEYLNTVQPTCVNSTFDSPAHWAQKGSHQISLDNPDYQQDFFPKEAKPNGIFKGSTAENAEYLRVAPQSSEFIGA
Sequence of EPHA6 (Q9UF33 whole entry): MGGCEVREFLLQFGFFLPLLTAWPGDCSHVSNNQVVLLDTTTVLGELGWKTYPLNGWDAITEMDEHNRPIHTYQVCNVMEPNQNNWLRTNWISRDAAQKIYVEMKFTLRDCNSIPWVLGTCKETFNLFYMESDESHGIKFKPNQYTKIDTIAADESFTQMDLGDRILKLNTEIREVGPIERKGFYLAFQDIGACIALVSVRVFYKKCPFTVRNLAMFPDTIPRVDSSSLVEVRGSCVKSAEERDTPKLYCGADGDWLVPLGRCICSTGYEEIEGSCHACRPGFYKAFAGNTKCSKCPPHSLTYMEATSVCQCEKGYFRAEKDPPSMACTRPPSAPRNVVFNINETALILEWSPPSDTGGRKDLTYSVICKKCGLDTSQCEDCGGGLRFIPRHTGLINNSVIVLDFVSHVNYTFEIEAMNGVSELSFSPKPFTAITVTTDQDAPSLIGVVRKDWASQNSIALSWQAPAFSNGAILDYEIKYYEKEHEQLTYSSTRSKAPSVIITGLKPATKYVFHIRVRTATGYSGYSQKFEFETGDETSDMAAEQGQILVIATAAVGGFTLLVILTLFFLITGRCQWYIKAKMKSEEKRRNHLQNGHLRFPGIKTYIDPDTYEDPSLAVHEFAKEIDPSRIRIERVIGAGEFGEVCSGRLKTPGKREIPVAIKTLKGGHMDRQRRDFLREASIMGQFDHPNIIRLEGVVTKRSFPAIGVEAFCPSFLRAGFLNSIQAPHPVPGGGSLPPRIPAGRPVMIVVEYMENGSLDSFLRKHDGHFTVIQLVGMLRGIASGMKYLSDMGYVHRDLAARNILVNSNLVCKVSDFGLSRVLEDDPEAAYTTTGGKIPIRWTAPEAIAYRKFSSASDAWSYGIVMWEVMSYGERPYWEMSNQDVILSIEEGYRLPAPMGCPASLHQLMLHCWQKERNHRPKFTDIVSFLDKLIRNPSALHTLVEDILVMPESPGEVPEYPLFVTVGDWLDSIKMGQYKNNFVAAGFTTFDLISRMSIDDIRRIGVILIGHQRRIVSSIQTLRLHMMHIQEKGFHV
Sequence of FGFR2 (P21802 whole entry): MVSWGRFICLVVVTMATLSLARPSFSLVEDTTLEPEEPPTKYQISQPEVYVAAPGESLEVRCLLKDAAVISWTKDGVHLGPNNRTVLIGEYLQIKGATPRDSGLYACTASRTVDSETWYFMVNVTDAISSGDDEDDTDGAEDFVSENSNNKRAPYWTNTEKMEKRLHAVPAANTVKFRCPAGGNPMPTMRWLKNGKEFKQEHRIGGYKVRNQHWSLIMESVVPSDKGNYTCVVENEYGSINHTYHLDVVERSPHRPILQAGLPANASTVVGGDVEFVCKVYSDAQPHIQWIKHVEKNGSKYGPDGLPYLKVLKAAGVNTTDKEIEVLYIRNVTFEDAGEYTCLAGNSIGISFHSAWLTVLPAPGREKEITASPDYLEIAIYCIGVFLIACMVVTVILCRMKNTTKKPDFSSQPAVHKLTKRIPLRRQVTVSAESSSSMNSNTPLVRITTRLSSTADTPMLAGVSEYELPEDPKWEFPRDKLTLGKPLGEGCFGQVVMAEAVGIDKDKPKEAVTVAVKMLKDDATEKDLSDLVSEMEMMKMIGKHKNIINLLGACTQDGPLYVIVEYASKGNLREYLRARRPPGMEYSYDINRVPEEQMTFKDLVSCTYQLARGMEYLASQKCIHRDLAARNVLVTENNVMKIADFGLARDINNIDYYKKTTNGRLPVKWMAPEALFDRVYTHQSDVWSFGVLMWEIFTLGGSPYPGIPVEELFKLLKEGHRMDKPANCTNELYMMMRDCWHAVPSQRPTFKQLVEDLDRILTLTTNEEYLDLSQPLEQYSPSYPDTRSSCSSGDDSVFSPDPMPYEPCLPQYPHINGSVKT
Sequence of KIT(V560G) (P10721 whole entry V560G): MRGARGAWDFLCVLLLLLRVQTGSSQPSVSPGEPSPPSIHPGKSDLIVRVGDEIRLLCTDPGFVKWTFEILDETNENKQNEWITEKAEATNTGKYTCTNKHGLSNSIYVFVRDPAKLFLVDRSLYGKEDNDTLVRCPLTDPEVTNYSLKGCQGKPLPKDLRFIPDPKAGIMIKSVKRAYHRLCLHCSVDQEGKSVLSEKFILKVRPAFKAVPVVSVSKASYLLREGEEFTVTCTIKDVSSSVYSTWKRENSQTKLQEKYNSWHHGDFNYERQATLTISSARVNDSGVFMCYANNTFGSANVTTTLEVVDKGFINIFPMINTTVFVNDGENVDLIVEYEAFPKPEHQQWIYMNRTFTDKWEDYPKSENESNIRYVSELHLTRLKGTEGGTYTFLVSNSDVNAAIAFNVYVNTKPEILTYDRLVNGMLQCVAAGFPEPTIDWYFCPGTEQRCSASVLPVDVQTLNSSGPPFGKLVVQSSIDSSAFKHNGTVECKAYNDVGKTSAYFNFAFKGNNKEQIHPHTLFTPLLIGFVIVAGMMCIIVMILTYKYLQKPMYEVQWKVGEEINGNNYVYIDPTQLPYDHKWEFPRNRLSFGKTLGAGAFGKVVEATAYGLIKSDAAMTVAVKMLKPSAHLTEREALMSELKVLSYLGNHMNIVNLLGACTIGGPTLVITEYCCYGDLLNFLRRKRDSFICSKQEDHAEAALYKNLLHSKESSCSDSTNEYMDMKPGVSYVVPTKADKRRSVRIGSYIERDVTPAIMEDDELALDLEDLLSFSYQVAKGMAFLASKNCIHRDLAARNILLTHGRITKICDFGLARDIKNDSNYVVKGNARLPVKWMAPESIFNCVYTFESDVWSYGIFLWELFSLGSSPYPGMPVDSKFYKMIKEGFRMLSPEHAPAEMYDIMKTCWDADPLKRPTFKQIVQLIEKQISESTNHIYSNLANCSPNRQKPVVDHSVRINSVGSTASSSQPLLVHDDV

c1cc(-c2ccc3[nH]ncc3c2)ccn1 [TG693, 5-(4-pyridinyl)-1H-indazole]
inhibition at 1 µM (TSSK3): 0.8%
inhibition at 1 µM (FES): 1.3%
inhibition at 1 µM (MARK1): 13.3%
inhibition at 1 µM (EGFR(T790M)): -0.2%
inhibition at 1 µM (RSK4): -6.5%
inhibition at 1 µM (MARK4): 25.1%
inhibition at 1 µM (MST3): 1%
inhibition at 1 µM (EPHB2): 0.3%
inhibition at 1 µM (PAK4): -13.7%
inhibition at 1 µM (TEC): -0.4%
inhibition at 1 µM (PKACα): 9.5%
inhibition at 1 µM (SYK): -60.9%
inhibition at 1 µM (NEK4): -4.2%
inhibition at 1 µM (EPHA8): 7.3%
inhibition at 1 µM (EPHA6): -3.5%
inhibition at 1 µM (PKD1): -15.8%
inhibition at 1 µM (YES(T348I)): -1.4%
inhibition at 1 µM (KIT(V560G)): -2.6%
inhibition at 1 µM (HCK): -3%
inhibition at 1 µM (DYRK3): 64%
inhibition at 1 µM (CRIK): 16.9%
inhibition at 1 µM (p38δ): -0.7%
inhibition at 1 µM (FGFR1): 6.9%
inhibition at 1 µM (RET(Y791F)): 3%
inhibition at 1 µM (YES): -9.6%
inhibition at 1 µM (CHK2): -1%
inhibition at 1 µM (MNK1): 45.7%
inhibition at 1 µM (FGFR2): 1.7%
inhibition at 1 µM (WNK3): -4.9%
inhibition at 1 µM (EGFR): -10.7%
inhibition at 1 µM (WNK1): 4.1%
